± gives the uncertainty stated by the source.
How the values were obtained:
THP-1 = assay: efficacy of IL-8 induction relative to DMSO (% activity); higher = stronger induction; settings: exposure time: 18 h
[1] = test system: lysine peptide Ac-RFAAKAA-COOH; assay: efficacy of lysine peptide change (negative = depletion) (% activity); higher = less depletion; settings: incubation time: 24 h
[2] = test system: cysteine peptide Ac-RFAACAA-COOH; assay: efficacy of cysteine peptide change (negative = depletion) (% activity); higher = less depletion; settings: incubation time: 24 h
[3] = test system: KeratinoSens (HaCaT ARE-luciferase) cells; assay: efficacy of ARE luciferase induction relative to DMSO (% activity over DMSO); higher = stronger induction; settings: exposure time: 24 h
[4] = test system: cysteine peptide Ac-RFAACAA-COOH; assay: AC50 of cysteine peptide concentration-response (direction given by sign of efficacy); higher = less potent; settings: incubation time: 24 h
[5] = test system: KeratinoSens (HaCaT ARE-luciferase) cells; assay: cytotoxicity AC50 (CellTiter-Fluor viability); higher = less cytotoxic; settings: exposure time: 24 h

Nc1ccc(Nc2ccccc2)cc1 [N-Phenyl-1,4-benzenediamine]
efficacy of IL-8 induction (THP-1): 5.67 ± 11
efficacy of lysine peptide change [1]: -11.4 ± 12
efficacy of cysteine peptide change [2]: -101.7 ± 0.97
efficacy of ARE luciferase induction [3]: 48.5 ± 28
AC50 [4]: 7.77 ± 3.2 µM

Nc1ccc2cc3ccccc3cc2c1 [2-Aminoanthracene]
efficacy of IL-8 induction (THP-1): 22.1 ± 0.99
efficacy of lysine peptide change [1]: -21.2 ± 1.8
efficacy of cysteine peptide change [2]: -84.3 ± 8.4
efficacy of ARE luciferase induction [3]: 25.1 ± 4.7
AC50 [4]: 0.19 ± 0.07 µM

Clc1ccc2c(c1)Nc1ccccc1S2 [2-Chlorophenothiazine]
efficacy of IL-8 induction (THP-1): 7.79 ± 8
efficacy of lysine peptide change [1]: -12.3 ± 2.6
efficacy of cysteine peptide change [2]: -90.5 ± 15
efficacy of ARE luciferase induction [3]: 28.3 ± 36
AC50 [4]: 4.03 ± 0.75 µM

CCC(C)(NC(=O)c1cc(Cl)c(C)c(Cl)c1)C(=O)CCl (stereo not drawn) [Zoxamide]
cytotoxicity AC50 [5]: 41.4 ± 2.8 µM
efficacy of IL-8 induction (THP-1): 84.9 ± 14
efficacy of lysine peptide change [1]: 19.4 ± 7.3
efficacy of cysteine peptide change [2]: -8.25 ± 7.4
efficacy of ARE luciferase induction [3]: 60.2 ± 4.2

Cc1c(C)n(Cc2ccccc2)c2ccc(C(=O)OCCN(C)C)cc12 [Indocate]
cytotoxicity AC50 [5]: 28.7 ± 6.6 µM
efficacy of IL-8 induction (THP-1): 17 ± 9.1
efficacy of lysine peptide change [1]: 90.6 ± 13
efficacy of cysteine peptide change [2]: 17.7 ± 6
efficacy of ARE luciferase induction [3]: 22.8 ± 4.9

O=C(N/N=C/c1ccc([N+](=O)[O-])o1)c1cc([N+](=O)[O-])cc([N+](=O)[O-])c1O [Nifursol]
efficacy of IL-8 induction (THP-1): 0
efficacy of lysine peptide change [1]: -10.9 ± 19
efficacy of cysteine peptide change [2]: -105 ± 6.6
efficacy of ARE luciferase induction [3]: 25.2 ± 9.3
AC50 [4]: 77.9 ± 29 µM

CC(C)C[C@H](NC(=O)[C@H](Cc1ccccc1)NC(=O)c1cnccn1)B(O)O [Bortezomib]
cytotoxicity AC50 [5]: 0.33 ± 0.02 µM
efficacy of IL-8 induction (THP-1): 504 ± 17
efficacy of lysine peptide change [1]: -35 ± 19
efficacy of cysteine peptide change [2]: 8.93 ± 9.3
efficacy of ARE luciferase induction [3]: -42.8 ± 3.7

CC1=C(/C=C/C(C)=C/C=C/C(C)=C/C=O)C(C)(C)CCC1 [13-cis-Retinal (Vitamin A aldehyde)]
efficacy of IL-8 induction (THP-1): 3.58 ± 6.2
efficacy of lysine peptide change [1]: 3.09 ± 20
efficacy of cysteine peptide change [2]: -71.2 ± 22
efficacy of ARE luciferase induction [3]: -8.45 ± 12
AC50 [4]: 38.7 ± 6.6 µM

N#Cc1nc(Cl)c(Cl)c(Cl)c1Cl [3,4,5,6-Tetrachloro-2-pyridinecarbonitrile]
cytotoxicity AC50 [5]: 10 ± 3.6 µM
efficacy of IL-8 induction (THP-1): 85.9 ± 32
efficacy of lysine peptide change [1]: 43.7 ± 15
efficacy of cysteine peptide change [2]: -49.4 ± 8.4
efficacy of ARE luciferase induction [3]: 38 ± 64
AC50 [4]: 66.8 ± 29 µM

CCCCCCCCCCCCCC[N+](C)(C)C [Tetradonium bromide]
cytotoxicity AC50 [5]: 14.2 ± 1.6 µM
efficacy of IL-8 induction (THP-1): 43 ± 20
efficacy of lysine peptide change [1]: 103 ± 44
efficacy of cysteine peptide change [2]: 61.4 ± 19
efficacy of ARE luciferase induction [3]: -21.2 ± 4.7

CO[C@@H]1[C@H](OC(=O)/C=C/C=C/C=C/C=C/C(=O)O)CC[C@]2(CO2)[C@H]1[C@@]1(C)O[C@@H]1CC=C(C)C [Fumagillin]
efficacy of IL-8 induction (THP-1): 0
efficacy of lysine peptide change [1]: 19.2 ± 21
efficacy of cysteine peptide change [2]: -117 ± 8.1
efficacy of ARE luciferase induction [3]: -9.86 ± 16
AC50 [4]: 23 ± 9 µM

Nc1ccc2ccccc2c1 [2-Naphthylamine]
cytotoxicity AC50 [5]: 70.8 µM
efficacy of IL-8 induction (THP-1): 5.33 ± 9.2
efficacy of lysine peptide change [1]: -10.1 ± 12
efficacy of cysteine peptide change [2]: -65.5 ± 4.2
efficacy of ARE luciferase induction [3]: 111 ± 32
AC50 [4]: 0.53 ± 0.23 µM

O=C(O)c1cc(O)c2ccccc2c1O [1,4-dihydroxy-2-naphthoic acid*]
cytotoxicity AC50 [5]: 13.7 ± 2.3 µM
efficacy of IL-8 induction (THP-1): 31.2 ± 8.8
efficacy of lysine peptide change [1]: -107 ± 3.6
efficacy of cysteine peptide change [2]: -105 ± 11
efficacy of ARE luciferase induction [3]: -34 ± 5.3
AC50 [4]: 4.18 ± 2.3 µM

CCCCC/C=C\C=C\C(=O)OCC [Ethyl (2E,4Z)-deca-2,4-dienoate]
efficacy of IL-8 induction (THP-1): 24.4 ± 5.7
efficacy of lysine peptide change [1]: -21.2 ± 2.9
efficacy of cysteine peptide change [2]: -99.8 ± 5.5
efficacy of ARE luciferase induction [3]: 68.2 ± 0.72
AC50 [4]: 13.7 ± 2.3 µM

COc1cc(C(C)(C)C)c(O)c(C(C)(C)C)c1 [2,6-Di-tert-butyl-4-methoxyphenol]
efficacy of IL-8 induction (THP-1): 0
efficacy of lysine peptide change [1]: 3.75 ± 13
efficacy of cysteine peptide change [2]: -96.8 ± 3.7
efficacy of ARE luciferase induction [3]: 17.3 ± 33
AC50 [4]: 43.4 ± 7.4 µM

CCOC(=O)CC(SP(=S)(OC)OC)C(=O)OCC (stereo not drawn) [Malathion]
efficacy of IL-8 induction (THP-1): 1.28 ± 2.2
efficacy of lysine peptide change [1]: 38.6 ± 20
efficacy of cysteine peptide change [2]: -114 ± 8.5
efficacy of ARE luciferase induction [3]: 10.2 ± 27
AC50 [4]: 3.05 ± 0.2 µM

Cc1ccc(N)cc1O [5-Amino-2-methylphenol]
efficacy of IL-8 induction (THP-1): 3.18 ± 5.5
efficacy of lysine peptide change [1]: -3.52 ± 14
efficacy of cysteine peptide change [2]: -77.2 ± 7.4
efficacy of ARE luciferase induction [3]: 59.5 ± 26
AC50 [4]: 33.1 ± 20 µM

C[n+]1cc2c3c(ccc2c2ccc4cc5c(cc4c21)OCO5)OCO3 [Sanguinarine]
cytotoxicity AC50 [5]: 7.37 ± 0.5 µM
efficacy of IL-8 induction (THP-1): 59.1 ± 21
efficacy of lysine peptide change [1]: 114 ± 27
efficacy of cysteine peptide change [2]: 58.9 ± 18
efficacy of ARE luciferase induction [3]: -34.7 ± 1.6

CCOP(=S)(OCC)Oc1nc(Cl)c(Cl)cc1Cl [Chlorpyrifos]
efficacy of IL-8 induction (THP-1): 8.52 ± 1.5
efficacy of lysine peptide change [1]: 26.7 ± 11
efficacy of cysteine peptide change [2]: -97.5 ± 7.8
efficacy of ARE luciferase induction [3]: 32.7 ± 17
AC50 [4]: 9.18 ± 2.6 µM

Nc1cc(-c2ccncc2)c[nH]c1=O [Amrinone]
efficacy of IL-8 induction (THP-1): 11.6 ± 10
efficacy of lysine peptide change [1]: 2.29 ± 4
efficacy of cysteine peptide change [2]: -105 ± 8.9
efficacy of ARE luciferase induction [3]: 11.6 ± 5.4
AC50 [4]: 31 ± 7.8 µM

N#CCC#N [Propanedinitrile]
efficacy of IL-8 induction (THP-1): 0
efficacy of lysine peptide change [1]: 8.33 ± 14
efficacy of cysteine peptide change [2]: -64.6 ± 10
efficacy of ARE luciferase induction [3]: 31.6 ± 5.9
AC50 [4]: 72.9 ± 20 µM

NC(=S)NC(N)=S [2,4-Dithiobiuret]
efficacy of IL-8 induction (THP-1): 15.5 ± 4.3
efficacy of lysine peptide change [1]: -0.11 ± 21
efficacy of cysteine peptide change [2]: -94.5 ± 8
efficacy of ARE luciferase induction [3]: 59.4 ± 25
AC50 [4]: 3.18 ± 0.37 µM

COc1cc(Nc2c(C#N)cnc3cc(OCCCN4CCN(C)CC4)c(OC)cc23)c(Cl)cc1Cl [Bosutinib]
cytotoxicity AC50 [5]: 12.6 µM
efficacy of IL-8 induction (THP-1): 7.85 ± 7.5
efficacy of lysine peptide change [1]: 120 ± 29
efficacy of cysteine peptide change [2]: 32.5 ± 12
efficacy of ARE luciferase induction [3]: -18.8 ± 8.1

CS/C(C)=N\OC(=O)N(C)SN(C)C(=O)O/N=C(\C)SC [Thiodicarb]
efficacy of IL-8 induction (THP-1): 10.8 ± 9.8
efficacy of lysine peptide change [1]: 38.2 ± 2.7
efficacy of cysteine peptide change [2]: -96.8 ± 3.2
efficacy of ARE luciferase induction [3]: -25.2 ± 33
AC50 [4]: 0.59 ± 0.11 µM

c1cc(OCC2CO2)ccc1Cc1ccc(OCC2CO2)cc1 (stereo not drawn) [Bis[4-(glycidyloxy)phenyl]methane]
cytotoxicity AC50 [5]: 57 ± 12 µM
efficacy of IL-8 induction (THP-1): -2.51 ± 4.3
efficacy of lysine peptide change [1]: 62.7 ± 21
efficacy of cysteine peptide change [2]: -4.82 ± 8.3
efficacy of ARE luciferase induction [3]: -12 ± 59

— the supplement of paper PMC10933113
